Experimental data taken from ChEMBL document CHEMBL5247592, “Discovery of novel VEGFR-2-PROTAC degraders based on the localization of lysine residues via recruiting VHL for the treatment of gastric cancer” (Eur J Med Chem, 2022).
Activity calls are given as the source filed them. No cut-off for these calls is given here.

Assays:
[1] = biological target: T1, von Hippel-Lindau disease tumor suppressor/Vascular endothelial growth factor receptor 2 (Homo sapiens, UniProt P35968+P40337); experiment: PROTAC activity at VHL/VEGFR2 in human HGC-27 cells assessed as reduction in relative VEGRF2 expression level at 1 uM preincubated with 4-Amino-N-(6-(1-(2-((4-methyl-3-(trifluoromethyl)phenyl)amino)-2-oxoethyl)-1H-pyrazol-4-y1)-1H-indazol-3-Abenzamide for 2 hrs followed by compound addition and measured after 24 hrs by Western blot analysis; assay type: cell-based
Target sequence in this assay (P35968 20-1356 limits assumed): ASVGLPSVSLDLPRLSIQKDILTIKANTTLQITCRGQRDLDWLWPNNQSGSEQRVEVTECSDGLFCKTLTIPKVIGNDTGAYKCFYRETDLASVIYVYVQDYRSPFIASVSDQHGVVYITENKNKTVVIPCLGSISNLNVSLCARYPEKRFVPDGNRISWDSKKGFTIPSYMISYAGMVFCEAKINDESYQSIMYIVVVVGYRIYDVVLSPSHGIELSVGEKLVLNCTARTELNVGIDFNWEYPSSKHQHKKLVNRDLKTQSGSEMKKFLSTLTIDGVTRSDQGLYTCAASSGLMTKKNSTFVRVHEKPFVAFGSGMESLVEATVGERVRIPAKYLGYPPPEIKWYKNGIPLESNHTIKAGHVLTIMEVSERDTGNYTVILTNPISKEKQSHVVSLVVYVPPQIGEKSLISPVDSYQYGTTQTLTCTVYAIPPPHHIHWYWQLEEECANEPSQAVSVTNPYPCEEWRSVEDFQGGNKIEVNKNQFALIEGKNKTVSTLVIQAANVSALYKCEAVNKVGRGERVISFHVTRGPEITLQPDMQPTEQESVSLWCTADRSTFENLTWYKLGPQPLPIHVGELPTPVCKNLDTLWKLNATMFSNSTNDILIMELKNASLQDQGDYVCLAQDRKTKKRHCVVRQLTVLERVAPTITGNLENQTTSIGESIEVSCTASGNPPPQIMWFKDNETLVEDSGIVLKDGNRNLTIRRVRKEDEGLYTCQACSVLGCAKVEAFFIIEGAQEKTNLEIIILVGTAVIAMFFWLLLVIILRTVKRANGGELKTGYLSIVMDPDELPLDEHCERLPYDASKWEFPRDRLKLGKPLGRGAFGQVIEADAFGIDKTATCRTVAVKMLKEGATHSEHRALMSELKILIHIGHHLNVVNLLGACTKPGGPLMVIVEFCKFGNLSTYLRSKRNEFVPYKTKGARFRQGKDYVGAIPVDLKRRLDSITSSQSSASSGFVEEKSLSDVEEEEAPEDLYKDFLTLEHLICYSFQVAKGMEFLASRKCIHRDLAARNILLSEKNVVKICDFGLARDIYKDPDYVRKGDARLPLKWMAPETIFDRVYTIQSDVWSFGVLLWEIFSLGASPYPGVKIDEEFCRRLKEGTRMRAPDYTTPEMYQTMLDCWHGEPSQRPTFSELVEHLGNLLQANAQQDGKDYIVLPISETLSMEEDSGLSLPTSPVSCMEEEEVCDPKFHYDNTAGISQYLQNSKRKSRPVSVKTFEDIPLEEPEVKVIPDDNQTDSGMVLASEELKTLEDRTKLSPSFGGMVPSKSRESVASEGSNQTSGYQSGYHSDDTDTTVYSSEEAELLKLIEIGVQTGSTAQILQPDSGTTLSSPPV
Target sequence in this assay (P40337 whole entry partner): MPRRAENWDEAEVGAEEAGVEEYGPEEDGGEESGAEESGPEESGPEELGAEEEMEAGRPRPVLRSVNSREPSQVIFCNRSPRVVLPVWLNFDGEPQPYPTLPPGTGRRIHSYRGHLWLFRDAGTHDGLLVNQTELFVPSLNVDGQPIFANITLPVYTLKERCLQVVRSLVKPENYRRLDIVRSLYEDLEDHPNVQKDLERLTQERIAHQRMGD

HGC-27 [2] = experiment: Inhibition of cell migration in human HGC-27 cells at 0.033 to 3.33 uM by wound healing assay; assay type: functional, cell-based; conditions: dose 0.033-3.33 µM, time <= 24.0 hrs, TDE = time-dependent effect
HGC-27 [3] = experiment: Induction of cell cycle arrest in human HGC-27 cells assessed as G0/G1 phase cells at 0.1 uM incubated for 24 hrs by PI staining based flow cytometric analysis (reference value: 47.4%); assay type: functional
[4] = biological target: T1, von Hippel-Lindau disease tumor suppressor/Vascular endothelial growth factor receptor 2; experiment: PROTAC activity at VHL/VEGFR2 in human HGC-27 cells assessed as reduction in VEGFR2 protein level by measuring maximal efficacy at 0.15 uM incubated for 24 hrs by Western blot analysis relative to control; assay type: cell-based
Target sequence in this assay (P35968 20-1356 limits assumed): as the sequence (P35968 20-1356 limits assumed) above
Target sequence in this assay (P40337 whole entry partner): as the sequence (P40337 whole entry partner) above

HGC-27 [5] = experiment: Induction of apoptosis in human HGC-27 cells assessed as late apoptotic cells at 0.33 uM incubated for 24 hrs by Annexin V-FITC/PI staining based analysis (reference value: 3%); assay type: functional
HGC-27 [6] = experiment: Induction of apoptosis in human HGC-27 cells assessed as viable cells at 3.3 uM incubated for 24 hrs by Annexin V-FITC/PI staining based analysis (reference value: 95.3%); assay type: functional; conditions: read-out: Activity
HGC-27 [7] = experiment: Induction of apoptosis in human HGC-27 cells assessed as late apoptotic cells at 1 uM incubated for 24 hrs by Annexin V-FITC/PI staining based analysis (reference value: 3%); assay type: functional
[8] = biological target: T1, von Hippel-Lindau disease tumor suppressor/Vascular endothelial growth factor receptor 2; experiment: PROTAC activity at VHL/VEGFR2 in human HGC-27 cells assessed as reduction in relative VEGRF2 expression level at 1 uM preincubated with VH032 for 2 hrs followed by compound addition and measured after 24 hrs by Western blot analysis; assay type: cell-based
Target sequence in this assay (P35968 20-1356 limits assumed): as the sequence (P35968 20-1356 limits assumed) above
Target sequence in this assay (P40337 whole entry partner): as the sequence (P40337 whole entry partner) above

[9] = biological target: T1, von Hippel-Lindau disease tumor suppressor/Vascular endothelial growth factor receptor 2; experiment: PROTAC activity at VHL/VEGFR2 in human HGC-27 cells assessed as […] at 1 uM measured upto 24 hrs in the presence of cycloheximide by Western blot analysis; assay type: cell-based
Target sequence in this assay (P35968 20-1356 limits assumed): as the sequence (P35968 20-1356 limits assumed) above
Target sequence in this assay (P40337 whole entry partner): as the sequence (P40337 whole entry partner) above

[10] = biological target: T1, von Hippel-Lindau disease tumor suppressor/Vascular endothelial growth factor receptor 2; experiment: PROTAC activity at VHL/VEGFR2 in HUVEC cells assessed as reduction in VEGFR2 protein level incubated for 24 hrs by Western blot analysis; assay type: cell-based
HGC-27 [11] = experiment: Induction of apoptosis in human HGC-27 cells assessed as early apoptotic cells at 0.33 uM incubated for 24 hrs by Annexin V-FITC/PI staining based analysis (reference value: 1.7 %); assay type: functional
[12] = biological target: T1, von Hippel-Lindau disease tumor suppressor/Vascular endothelial growth factor receptor 2; experiment: PROTAC activity at VHL/VEGFR2 in human HGC-27 cells assessed as residual activity by measuring VEGFR2 expression level at 1 uM incubated for 24 hrs followed by compound washout and measured after 24 hrs by Western blot analysis relative to control; assay type: cell-based
Target sequence in this assay (P35968 20-1356 limits assumed): as the sequence (P35968 20-1356 limits assumed) above
Target sequence in this assay (P40337 whole entry partner): as the sequence (P40337 whole entry partner) above

HGC-27 [13] = experiment: Induction of apoptosis in human HGC-27 cells assessed as necrotic cells at 3.3 uM incubated for 24 hrs by Annexin V-FITC/PI staining based analysis (reference value: 0.65 %); assay type: functional
[14] = biological target: T1, von Hippel-Lindau disease tumor suppressor/Vascular endothelial growth factor receptor 2; experiment: PROTAC activity at VHL/VEGFR2 in human HGC-27 cells assessed as half-life of intracellular VEGFR2 protein […] at 1 uM measured upto 24 hrs in the presence of cycloheximide by Western blot analysis (reference value: 5.45 hrs); assay type: cell-based
Target sequence in this assay (P35968 20-1356 limits assumed): as the sequence (P35968 20-1356 limits assumed) above
Target sequence in this assay (P40337 whole entry partner): as the sequence (P40337 whole entry partner) above

HGC-27 [15] = experiment: Induction of apoptosis in human HGC-27 cells assessed as viable cells at 0.1 uM incubated for 24 hrs by Annexin V-FITC/PI staining based analysis (reference value: 95.3%); assay type: functional; conditions: read-out: Activity
HGC-27 [16] = experiment: Induction of apoptosis in human HGC-27 cells assessed as necrotic cells at 0.1 uM incubated for 24 hrs by Annexin V-FITC/PI staining based analysis (reference value: 0.65 %); assay type: functional
HGC-27 [17] = experiment: Antiinvasive activity in human HGC-27 cells assessed as reduction in number of invasive cells at 3.33 uM incubated for 24 hrs by transwell invasion assay (reference value: 118); assay type: functional
[18] = biological target: T1, von Hippel-Lindau disease tumor suppressor/Vascular endothelial growth factor receptor 2; experiment: PROTAC activity at VHL/VEGFR2 in human HGC-27 cells assessed as induction of VEGRF2 protein degradation at 1 uM preincubated with VH032 for 2 hrs followed by compound addition and measured after 24 hrs by Western blot analysis; assay type: cell-based
[19] = Cytotoxicity against human GES1 cells assessed as inhibition of cell growth incubated for 72 hrs by MTT assay; assay type: toxicity, cell-based
[20] = biological target: T1, von Hippel-Lindau disease tumor suppressor/Vascular endothelial growth factor receptor 2; experiment: PROTAC activity at VHL/VEGFR2 in human HGC-27 cells assessed as induction of VEGFR2 degradation at 1 uM measured after 12 hrs by Western blot analysis relative to control; assay type: cell-based
HGC-27 [21] = experiment: Induction of apoptosis in human HGC-27 cells assessed as viable cells at 0.33 uM incubated for 24 hrs by Annexin V-FITC/PI staining based analysis (reference value: 95.3%); assay type: functional; conditions: read-out: Activity
[22] = biological target: T1, von Hippel-Lindau disease tumor suppressor/Vascular endothelial growth factor receptor 2; experiment: PROTAC activity at VHL/VEGFR2 in human HGC-27 cells assessed as induction of VEGRF2 protein degradation at 1 uM preincubated with MLN4924 for 2 hrs followed by compound addition and measured after 24 hrs by Western blot analysis; assay type: cell-based
[23] = biological target: T1, von Hippel-Lindau disease tumor suppressor/Vascular endothelial growth factor receptor 2; experiment: PROTAC activity at VHL/VEGFR2 in human HGC-27 cells assessed as residual activity by measuring VEGFR2 expression level at 1 uM incubated for 24 hrs followed by compound washout and measured after 4 hrs by Western blot analysis relative to control; assay type: cell-based
HGC-27 [24] = experiment: Induction of apoptosis in human HGC-27 cells assessed as viable cells at 1 uM incubated for 24 hrs by Annexin V-FITC/PI staining based analysis (reference value: 95.3%); assay type: functional; conditions: read-out: Activity
HGC-27 [25] = experiment: Inhibition of colony formation in human HGC-27 cells incubated for 8 days by crystal violet staining based analysis; assay type: functional, cell-based; conditions: dose 0.033-3.33 µM, time 8.0 day
[26] = biological target: T1, von Hippel-Lindau disease tumor suppressor/Vascular endothelial growth factor receptor 2; experiment: PROTAC activity at VHL/VEGFR2 in human HGC-27 cells assessed as reduction in relative VEGRF2 expression level at 1 uM preincubated with MG-132 for 2 hrs followed by compound addition and measured after 24 hrs by Western blot analysis; assay type: cell-based
HGC-27 [27] = experiment: Antiproliferative activity against human HGC-27 cells assessed as inhibition of cell growth incubated for 72 hrs by MTT assay; assay type: functional, cell-based; conditions: HGC-27, 72 h
HGC-27 [28] = experiment: Antiinvasive activity in human HGC-27 cells assessed as reduction in number of invasive cells at 1 uM incubated for 24 hrs by transwell invasion assay (reference value: 118); assay type: functional
HGC-27 [29] = experiment: Induction of cell cycle arrest in human HGC-27 cells assessed as G0/G1 phase cells at 0.33 uM incubated for 24 hrs by PI staining based flow cytometric analysis (reference value: 47.4%); assay type: functional
HGC-27 [30] = experiment: Induction of cell cycle arrest in human HGC-27 cells assessed as G0/G1 phase cells at 3.33 uM incubated for 24 hrs by PI staining based flow cytometric analysis (reference value: 47.4%); assay type: functional
HGC-27 [31] = experiment: Induction of apoptosis in human HGC-27 cells assessed as late apoptotic cells at 0.033 uM incubated for 24 hrs by Annexin V-FITC/PI staining based analysis (reference value: 3%); assay type: functional

Question: Which Activity [1] does the source give for `Cc1ccc(NC(=O)Cn2cc(-c3ccc4c(NC(=O)c5ccc(NC(=O)CCCCCCCCC(=O)N[C@H](C(=O)N6C[C@H](O)C[C@H]6C(=O)NCc6ccc(-c7scnc7C)cc6)C(C)(C)C)cc5)n[nH]c4c3)cn2)cc1C(F)(F)F` here?
Answer: The Activity was “inactive”.

Question: What about the inhibition (HGC-27 [2]) of the same compound?
Answer: Its inhibition is “Tde”.

Question: What about the Activity (HGC-27 [3]) of the same compound?
Answer: The Activity was 44.3%.

Question: What about the Emax [4] of the same compound?
Answer: The Emax was 73.7%.

Question: What about the Activity (HGC-27 [5]) of the same compound?
Answer: Its Activity is 6.7%.

Question: And the viability at 3.3 µM (HGC-27 [6])?
Answer: Its viability at 3.3 µM is 54%.

Question: What about the Activity (HGC-27 [7]) of the same compound?
Answer: Its Activity is 14.2%.

Question: What about the Activity [8] of the same compound?
Answer: Its Activity is “inactive”.

Question: And the Activity [9]?
Answer: The Activity was “Active”.

Question: And the Activity [10]?
Answer: The Activity was “Dose-Dependent Effect”.

Question: What about the EC50 [10] of the same compound?
Answer: Its EC50 is 0.51 µM.

Question: And the Activity (HGC-27 [11])?
Answer: The Activity was 3.2%.

Question: And the Activity [12]?
Answer: Its Activity is 77%.

Question: And the Activity (HGC-27 [13])?
Answer: The Activity was 0.52%.

Question: What about the T1/2 [14] of the same compound?
Answer: Its T1/2 is 5.45 h.

Question: And the viability at 0.1 µM (HGC-27 [15])?
Answer: The viability at 0.1 µM was 92.1%.

Question: And the Activity (HGC-27 [16])?
Answer: The Activity was 0.46%.

Question: What about the Activity (HGC-27 [17]) of the same compound?
Answer: The Activity was 4.

Question: What about the Activity [18] of the same compound?
Answer: Its Activity is “inactive”.

Question: And the IC50 at 72 h [19]?
Answer: Its IC50 at 72 h is 20 µM.

Question: And the Activity [20]?
Answer: The Activity was 33.3%.

Question: What about the viability at 0.33 µM (HGC-27 [21]) of the same compound?
Answer: The viability at 0.33 µM was 89.1%.

Question: What about the Activity [22] of the same compound?
Answer: The Activity was “inactive”.

Question: And the Activity [23]?
Answer: The Activity was 32.8%.

Question: And the viability at 1 µM (HGC-27 [24])?
Answer: Its viability at 1 µM is 76.5%.

Question: What about the inhibition (HGC-27 [25]) of the same compound?
Answer: Its inhibition is “Dose-Dependent Effect”.

Question: What about the Activity [26] of the same compound?
Answer: Its Activity is “inactive”.

Question: And the IC50 (HGC-27 [27])?
Answer: The IC50 was 2.03 µM.

Question: And the Activity (HGC-27 [28])?
Answer: The Activity was 11.

Question: And the Activity (HGC-27 [29])?
Answer: The Activity was 23.9%.

Question: What about the Activity (HGC-27 [30]) of the same compound?
Answer: The Activity was 14.1%.

Question: What about the Activity (HGC-27 [31]) of the same compound?
Answer: Its Activity is 3%.
